ChEMBL document CHEMBL5325488, “Discovery of SMD-3040 as a Potent and Selective SMARCA2 PROTAC Degrader with Strong in vivo Antitumor Activity” (J Med Chem, 2023)

Experiments:
[1] = target: T1, von Hippel-Lindau disease tumor suppressor/SWI/SNF-related matrix-associated actin-dependent regulator of chromatin subfamily A member 2 (Homo sapiens, UniProt P51531+P40337); test: PROTAC activity at VHL/C-terminal HiBiT fused SMARCA2 in human HeLa cells assessed as induction of SMARCA2 degradation incubated for 24 hrs by Nano-Glo HiBiT analysis; assay type: cell-based
Target sequence in this assay (P51531 whole entry, the tested form may be a part): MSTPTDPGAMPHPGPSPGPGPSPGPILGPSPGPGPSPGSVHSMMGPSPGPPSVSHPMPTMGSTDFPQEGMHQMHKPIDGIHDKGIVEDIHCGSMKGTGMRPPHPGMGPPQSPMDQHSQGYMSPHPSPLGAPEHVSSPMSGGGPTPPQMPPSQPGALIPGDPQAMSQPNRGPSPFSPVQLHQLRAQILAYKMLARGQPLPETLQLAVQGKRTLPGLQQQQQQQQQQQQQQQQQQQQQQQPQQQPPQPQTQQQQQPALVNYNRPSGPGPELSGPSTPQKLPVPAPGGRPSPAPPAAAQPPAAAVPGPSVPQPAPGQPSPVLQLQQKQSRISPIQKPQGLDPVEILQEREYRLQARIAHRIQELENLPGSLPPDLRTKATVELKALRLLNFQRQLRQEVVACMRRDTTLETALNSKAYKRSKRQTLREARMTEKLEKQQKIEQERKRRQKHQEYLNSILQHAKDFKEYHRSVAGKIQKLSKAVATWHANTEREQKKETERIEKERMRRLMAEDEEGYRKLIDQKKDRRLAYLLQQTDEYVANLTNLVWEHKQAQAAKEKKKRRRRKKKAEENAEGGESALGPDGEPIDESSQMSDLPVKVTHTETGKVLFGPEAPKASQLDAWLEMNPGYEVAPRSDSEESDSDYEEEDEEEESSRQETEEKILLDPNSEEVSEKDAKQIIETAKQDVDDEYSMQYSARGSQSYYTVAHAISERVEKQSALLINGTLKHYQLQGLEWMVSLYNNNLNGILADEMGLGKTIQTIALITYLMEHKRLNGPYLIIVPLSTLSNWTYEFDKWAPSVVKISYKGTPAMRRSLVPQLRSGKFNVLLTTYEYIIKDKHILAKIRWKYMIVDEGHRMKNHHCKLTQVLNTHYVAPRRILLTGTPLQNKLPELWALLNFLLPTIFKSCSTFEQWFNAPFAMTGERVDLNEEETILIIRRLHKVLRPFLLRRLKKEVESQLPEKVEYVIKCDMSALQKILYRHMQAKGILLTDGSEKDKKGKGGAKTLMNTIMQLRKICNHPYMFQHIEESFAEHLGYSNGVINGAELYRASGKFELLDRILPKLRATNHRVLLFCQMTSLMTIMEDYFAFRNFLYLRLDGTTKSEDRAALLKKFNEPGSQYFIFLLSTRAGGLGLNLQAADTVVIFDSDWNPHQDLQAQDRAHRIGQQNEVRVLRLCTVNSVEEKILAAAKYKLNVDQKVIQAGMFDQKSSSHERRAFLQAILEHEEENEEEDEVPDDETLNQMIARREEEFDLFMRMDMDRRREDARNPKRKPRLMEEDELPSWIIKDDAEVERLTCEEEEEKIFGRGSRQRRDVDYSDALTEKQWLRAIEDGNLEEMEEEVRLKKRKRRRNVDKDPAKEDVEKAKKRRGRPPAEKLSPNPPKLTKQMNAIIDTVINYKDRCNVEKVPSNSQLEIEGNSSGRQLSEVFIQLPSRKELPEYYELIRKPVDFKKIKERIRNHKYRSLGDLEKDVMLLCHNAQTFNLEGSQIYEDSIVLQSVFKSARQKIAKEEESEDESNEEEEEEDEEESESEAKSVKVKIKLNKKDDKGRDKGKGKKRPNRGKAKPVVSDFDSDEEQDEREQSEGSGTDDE
Target sequence in this assay (P40337 whole entry, the tested form may be a part): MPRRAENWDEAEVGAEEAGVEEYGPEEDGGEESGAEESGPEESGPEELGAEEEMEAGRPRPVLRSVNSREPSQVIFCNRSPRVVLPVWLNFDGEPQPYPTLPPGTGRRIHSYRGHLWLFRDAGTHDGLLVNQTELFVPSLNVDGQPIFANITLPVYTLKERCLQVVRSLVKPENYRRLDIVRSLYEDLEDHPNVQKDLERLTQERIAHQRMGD

[2] = target: T1, von Hippel-Lindau disease tumor suppressor/SWI/SNF-related matrix-associated actin-dependent regulator of chromatin subfamily A member 2; test: PROTAC activity at VHL/C-terminal HiBiT fused SMARCA2 in human HeLa cells assessed as induction of SMARCA2 degradation at 0.0001 to 1 uM incubated for 1 hr by Nano-Glo HiBiT analysis relative to control; assay type: cell-based; conditions: dose 0.0001-1 µM
Target sequence in this assay (P40337 whole entry, looked up, the tested form may be a part): as the sequence (P40337 whole entry, the tested form may be a part) above
Target sequence in this assay (P51531 whole entry, looked up, the tested form may be a part): as the sequence (P51531 whole entry, the tested form may be a part) above

[3] = target: T1, von Hippel-Lindau disease tumor suppressor/SWI/SNF-related matrix-associated actin-dependent regulator of chromatin subfamily A member 2; test: PROTAC activity at VHL/C-terminal HiBiT fused SMARCA2 in human HeLa cells assessed as induction of SMARCA2 degradation incubated for 3 hrs by Nano-Glo HiBiT analysis; assay type: cell-based
Target sequence in this assay (P51531 whole entry, the tested form may be a part): as above
Target sequence in this assay (P40337 whole entry, the tested form may be a part): as the sequence (P40337 whole entry, the tested form may be a part) above

[4] = target: T1, von Hippel-Lindau disease tumor suppressor/SWI/SNF-related matrix-associated actin-dependent regulator of chromatin subfamily A member 2; test: PROTAC activity at VHL/C-terminal HiBiT fused SMARCA2 in human HeLa cells assessed as induction of SMARCA2 degradation incubated for 6 hrs by Nano-Glo HiBiT analysis; assay type: cell-based
Target sequence in this assay (P51531 whole entry, the tested form may be a part): as the sequence (P51531 whole entry, the tested form may be a part) above
Target sequence in this assay (P40337 whole entry, the tested form may be a part): as the sequence (P40337 whole entry, the tested form may be a part) above

[5] = target: T1, von Hippel-Lindau disease tumor suppressor/SWI/SNF-related matrix-associated actin-dependent regulator of chromatin subfamily A member 2; test: PROTAC activity at VHL/C-terminal HiBiT fused SMARCA2 in human HeLa cells assessed as induction of SMARCA2 degradation at 0.0001 to 1 uM incubated for 6 hrs by Nano-Glo HiBiT analysis relative to control; assay type: cell-based; conditions: dose 0.0001-1 µM
Target sequence in this assay (P40337 whole entry, looked up, the tested form may be a part): as the sequence (P40337 whole entry, the tested form may be a part) above
Target sequence in this assay (P51531 whole entry, looked up, the tested form may be a part): as the sequence (P51531 whole entry, the tested form may be a part) above

[6] = target: T2, von Hippel-Lindau disease tumor suppressor/SWI/SNF-related matrix-associated actin-dependent regulator of chromatin subfamily A member 4 (Homo sapiens, UniProt P51532+P40337); test: PROTAC activity at VHL/C-terminal HiBiT fused SMARCA4 in human HeLa cells assessed as induction of SMARCA4 degradation by measuring maximal efficacy at 0.001 to 10 uM incubated for 3 hrs by Nano-Glo HiBiT analysis relative to control; assay type: cell-based; conditions: dose 0.001-10 µM
[7] = target: T1, von Hippel-Lindau disease tumor suppressor/SWI/SNF-related matrix-associated actin-dependent regulator of chromatin subfamily A member 2; test: PROTAC activity at VHL/C-terminal HiBiT fused SMARCA2 in human HeLa cells assessed as induction of SMARCA2 degradation at 0.001 to 10 uM by Nano-Glo HiBiT analysis; assay type: cell-based; conditions: dose 0.001-10 µM, time 1-48 hrs, TDE = time-dependent effect
Target sequence in this assay (P40337 whole entry, looked up, the tested form may be a part): as the sequence (P40337 whole entry, the tested form may be a part) above
Target sequence in this assay (P51531 whole entry, looked up, the tested form may be a part): as the sequence (P51531 whole entry, the tested form may be a part) above

[8] = target: T1, von Hippel-Lindau disease tumor suppressor/SWI/SNF-related matrix-associated actin-dependent regulator of chromatin subfamily A member 2; test: PROTAC activity at VHL/wild-type SMARCA2 in human SK-MEL-5 cells assessed as induction of SMARCA2 degradation incubated for 24 hrs by Western blotting analysis; assay type: cell-based
Target sequence in this assay (P51531 whole entry, the tested form may be a part): as above
Target sequence in this assay (P40337 whole entry, the tested form may be a part): as the sequence (P40337 whole entry, the tested form may be a part) above

[9] = system: NCI-H1299; test: Antiproliferative activity against SMARCA4-deficient human NCI-H1299 cells assessed as cell growth inhibition by measuring maximal efficacy measured after 7 days by WST-8 assay relative to control; assay type: functional; conditions: time 7 day
[10] = system: SK-MEL-5; test: Antiproliferative activity against SMARCA4-deficient human SK-MEL-5 cells assessed as cell growth inhibition by measuring maximal efficacy measured after 7 days by WST-8 assay relative to control; assay type: functional; conditions: time 7 day
[11] = system: NCI-H1792; test: Antiproliferative activity against human NCI-H1792 cells expressing wild-type SMARCA2 assessed as cell growth inhibition by measuring maximal efficacy measured after 7 days by WST-8 assay relative to control; assay type: functional; conditions: time 7 day
[12] = system: NCI-H1975; test: Antiproliferative activity against human NCI-H1975 cells expressing wild-type SMARCA2 assessed as cell growth inhibition by measuring maximal efficacy measured after 7 days by WST-8 assay relative to control; assay type: functional; conditions: time 7 day
[13] = system: NCI-H647; test: Antiproliferative activity against human NCI-H647 cells expressing wild-type SMARCA2 assessed as cell growth inhibition by measuring maximal efficacy measured after 7 days by WST-8 assay relative to control; assay type: functional; conditions: time 7 day
[14] = target: T1, von Hippel-Lindau disease tumor suppressor/SWI/SNF-related matrix-associated actin-dependent regulator of chromatin subfamily A member 2; test: In vivo PROTAC activity at VHL/SMARCA2 in SCID mouse xenografted with human MV4-11 cells assessed as reduction of SMARCA2 level in tumor at 50 mg/kg, iv administered as single dose measured after 48 hrs by Western blotting analysis; assay type: ADME, organism-based; design: scale not given: the % may be the effect or the level left
Target sequence in this assay (P51531 whole entry, the tested form may be a part): as the sequence (P51531 whole entry, the tested form may be a part) above
Target sequence in this assay (P40337 whole entry, the tested form may be a part): as the sequence (P40337 whole entry, the tested form may be a part) above

[15] = target: T1, von Hippel-Lindau disease tumor suppressor/SWI/SNF-related matrix-associated actin-dependent regulator of chromatin subfamily A member 2; test: In vivo PROTAC activity at VHL/SMARCA2 in SCID mouse xenografted with human MV4-11 cells assessed as reduction of SMARCA2 level in tumor at 50 mg/kg, iv administered as single dose measured after 72 hrs by Western blotting analysis; assay type: ADME, organism-based; design: scale not given: the % may be the effect or the level left
Target sequence in this assay (P51531 whole entry, the tested form may be a part): as the sequence (P51531 whole entry, the tested form may be a part) above
Target sequence in this assay (P40337 whole entry, the tested form may be a part): as the sequence (P40337 whole entry, the tested form may be a part) above

[16] = target: T1, von Hippel-Lindau disease tumor suppressor/SWI/SNF-related matrix-associated actin-dependent regulator of chromatin subfamily A member 2; test: In vivo PROTAC activity at VHL/SMARCA2 in SCID mouse xenografted with human MV4-11 cells assessed as reduction of SMARCA2 level in tumor at 50 mg/kg, iv administered as single dose measured after 96 hrs by Western blotting analysis; assay type: ADME, organism-based; design: scale not given: the % may be the effect or the level left
[17] = target: T1, von Hippel-Lindau disease tumor suppressor/SWI/SNF-related matrix-associated actin-dependent regulator of chromatin subfamily A member 2; test: In vivo PROTAC activity at VHL/SMARCA2 in SCID mouse xenografted with human MV4-11 cells assessed as remaining activity in tumor at 50 mg/kg, iv administered as single dose measured after 24 hrs by Western blotting analysis (reference value: 100 +/- 15 % ); assay type: ADME, organism-based
[18] = target: T2, von Hippel-Lindau disease tumor suppressor/SWI/SNF-related matrix-associated actin-dependent regulator of chromatin subfamily A member 4; test: In vivo PROTAC activity at VHL/SMARCA4 in SCID mouse xenografted with human MV4-11 cells assessed as reduction of SMARCA4 level in tumor at 50 mg/kg, iv administered as single dose measured after 2 hrs by Western blotting analysis; assay type: ADME, organism-based; design: scale not given: the % may be the effect or the level left
[19] = target: T2, von Hippel-Lindau disease tumor suppressor/SWI/SNF-related matrix-associated actin-dependent regulator of chromatin subfamily A member 4; test: In vivo PROTAC activity at VHL/SMARCA4 in SCID mouse xenografted with human MV4-11 cells assessed as reduction of SMARCA4 level in tumor at 50 mg/kg, iv administered as single dose measured after 72 hrs by Western blotting analysis; assay type: ADME, organism-based; design: scale not given: the % may be the effect or the level left
[20] = target: T2, von Hippel-Lindau disease tumor suppressor/SWI/SNF-related matrix-associated actin-dependent regulator of chromatin subfamily A member 4; test: In vivo PROTAC activity at VHL/SMARCA4 in SCID mouse xenografted with human MV4-11 cells assessed as remaining activity in tumor at 50 mg/kg, iv administered as single dose measured after 24 hrs by Western blotting analysis (reference value: 100 +/- 15 % ); assay type: ADME, organism-based
[21] = Drug concentration in SCID mouse plasma xenografted with human MV4-11 cells at 50 mg/kg, iv measured after 6 hrs by LC-MS/MS method; assay type: ADME, organism-based
[22] = Drug concentration in SCID mouse tumor xenografted with human MV4-11 cells at 50 mg/kg, iv measured after 2 hrs by LC-MS/MS method; assay type: ADME, organism-based, Neoplasm; conditions: read-out: Ct
[23] = Drug concentration in SCID mouse tumor xenografted with human MV4-11 cells at 50 mg/kg, iv measured after 24 hrs by LC-MS/MS method; assay type: ADME, organism-based, Neoplasm; conditions: read-out: Ct
[24] = Drug concentration in SCID mouse tumor xenografted with human MV4-11 cells at 50 mg/kg, iv measured after 96 hrs by LC-MS/MS method; assay type: ADME, organism-based, Neoplasm; conditions: read-out: Ct
[25] = system: SK-MEL-5; test: Antitumor activity against SMARCA4-deficient human SK-MEL-5 cells xenografted in SCID mouse assessed as tumor growth inhibition at 50 mg/kg, iv administered twice a week measured after 32 days relative to control; assay type: functional; conditions: SK-MEL-5, 768 h, time 32 day, read-out: TGI
[26] = Toxicity in SCID mouse xenografted with human SK-MEL-5 cells assessed as effect on change in body weight at 50 mg/kg, iv administered twice a week measured after 3 weeks; assay type: organism-based; conditions: in vivo, 504 h

**Q.** Which results are given for Cc1ncsc1-c1ccc([C@H](C)NC(=O)[C@@H]2C[C@@H](O)CN2C(=O)[C@@H](NC(=O)[C@H]2CC[C@H](CN3CC4(CCC(n5cc(-c6cc(-c7ccccc7O)nnc6N)cn5)CC4)C3)CC2)C(C)(C)C)cc1?
**A.** DC50 [1]: 10 nM; Emax [2]: 66%; DC50 [3]: 63 nM; DC50 [4]: 44 nM; Emax [5]: 80%; Emax [6]: 46%; Activity [7]: Tde; DC50 [8]: 20 nM; Imax [9]: 41%; Imax [10]: 95%; Imax [11]: 25%; Imax [12]: 47%; Imax [13]: 74%; Activity [14]: 83%; Activity [15]: 56%; Activity [16]: 74%; Activity [17]: 14%; Activity [18]: 7%; Activity [19]: 9%; Activity [20]: 71%; concentration at 6 h [21]: 766 ng/mL; concentration at 2 h [22]: 3420 ng/g; concentration at 24 h [23]: 2960 ng/g; concentration at 96 h [24]: 560 ng/g; inhibition in vivo at 50 mg/kg [25]: 74%; Activity [26]: Non-Toxic
